Reference: patent US12497403B2, “Factor XIa inhibitors” (Merck Sharp & Dohme LLC, priority 2021, dated 2025)
Converted amounts (≈) assume the structure as drawn. Where two headings read alike, the source gives them in different places.

Assays:
human Factor XIa = human Factor XIa (Homo sapiens, UniProt P03951); test: Factor XIa assay; assay type: biochemical; conditions: human Factor XIa 0.04 nM, GPR-AFC substrate, 25° C., pH 7.4; read-out: FXIa IC50
Description: (§1) The effectiveness of a compound of the present invention as an inhibitor of Coagulation Factor XIa can be determined using a relevant purified serine protease, and an appropriate synthetic substrate. The rate of hydrolysis of the chromogenic or fluorogenic substrate by the relevant serine protease was measured both in the absence and presence of compounds of the present invention. Assays were conducted at room temperature or at 37° C. […] A decrease in the rate of fluorescence change in the presence of inhibitor is indicative of enzyme inhibition. Such methods are known to one skilled in the art. The results of this assay are expressed as the half-maximal inhibitory concentrations (IC50), or the inhibitory constant, Ki.
Compounds were pre-incubated for 30 minutes at 25° C. with human (0.04 nM) Factor XIa in 50 mM HEPES buffer with 150 mM sodium chloride, 5 mM calcium chloride, 0.1% PEG 8000, pH 7.4. Factor XIa enzymatic activity was determined by addition of the substrate glycine-proline-arginine-7-amido-4-trifluoromethylcoumarin (GPR-AFC) and measurement of the fluorescence at 400/505 nm after a 60 minute incubation at 25° C. The % inhibition for each data point was calculated from the data and analyzed using the log (inhibitor) vs. response four parameters equation to determine the half-maximal inhibitory concentrations (IC50). The IC50 were converted to equilibrium inhibitory constants (Ki) using the Cheng-Prusoff equation.

Human plasma kallikrein = target: T1, Human plasma kallikrein (Homo sapiens, UniProt P03952); test: Kallikrein assay (plasma kallikrein); assay type: biochemical; conditions: purified Human plasma kallikrein 0.5 nM, Acetyl-K-P-R-AFC substrate, pH 7.4; read-out: pKal IC50
T1 construct: yields a heavy chain (371 amino acids) and a light chain (248 amino acids); purchased Enzyme Research Laboratories
Description: as §1, with “Kallikrein” for “Coagulation Factor XIa”, “constant.” for “constant,”
Kallikrein determinations were made in 50 mM HEPES buffer at pH 7.4 containing 150 mM NaCl, 5 mM CaCl2, and 0.1% PEG 8000 (polyethylene glycol; Fisher Scientific). Determinations were made using purified Human plasma kallikrein at a final concentration of 0.5 nM (Enzyme Research Laboratories) and the synthetic substrate. Acetyl-K-P-R-AFC (Sigma # C6608) at a concentration of […].
Activity assays were performed by diluting a stock solution of substrate at least tenfold to a final concentration≤ 0.2 Km into a solution containing enzyme or enzyme equilibrated with inhibitor. Times required to achieve equilibration between enzyme and inhibitor were determined in control experiments. The reactions were performed under linear progress curve conditions and fluorescence increase measured at 405 Ex/510 Em nm. Values were converted to percent inhibition of the control reaction (after subtracting 100% Inhibition value). IC50 was determined by inflection point from a four parameter logistic curve fit. Ki was calculated using the Cheng Prusoff equation. Ki=IC50/(1+([S]/Km)).

[1] = High-throughput (HT) solubility determination; assay type: physicochemical; conditions: kinetic from dmso stock
Description: The chromatographic system consists of an Agilent 1290 UPLC/DAD system and ChemStation software, both from Agilent Technologies, USA. The separations are carried out on a Supelco Ascentis Express C18, 30 mm×3.0 mm I.D., 2.7 μm HPLC column. The mobile phase consists of Potassium phosphate buffered at pH 7 (mobile phase A) and acetonitrile (mobile phase B). The column oven temperature is set to 30° C. and the UPLC analysis consists of a gradient. The injection volume is 2 μL and the spectrophotometric detection is set to 215 and 238 nm.
A 10 mM stock solution of the compound in DMSO is supplied for analysis. 2.5 μL of stock solution (10 mM) was diluted into 247.5 μL of organic co-solvents (10% MeCN/80% MeOH/10% DMSO, v/v/v) to create a standard solution of 100 μM. To create the solubility solutions, 4.1 μL of 10 mM DMSO stock solution was diluted into […] of phosphate buffered saline (PBS) (pH 7) solution. A second 4.1 μL aliquot of 10 mM DMSO stock solution was added to 196 μL of PBS (pH 2) solution. A third 4.1 uL aliquot of 10 mM DMSO stock solution was added to 196 uL of FaSSIF (pH 6.5) solution. […] The equilibrated solubility solutions were filtered by centrifugation using a filter (0.45 μm, polypropylene). 50 μL each of the 100 μM standard solution and the filtered equilibrated solubility solutions were placed into a 384 well plate, and the plate was subsequently heat sealed.
Each standard and solubility solution was analyzed by UPLC/DAD. The solubility value was calculated by the following equation: Solubility=(Peak area of sample/Peak area of standard) (Standard concentration)

[2] = target: T2, Human Norepinephrine Transporter (NET) (Homo sapiens, UniProt P23975); test: Norepinephrine Transporter functional antagonist uptake assay; assay type: cell-based; conditions: [3H]Norepinephrine uptake, human recombinant NET in MDCK cells
T2 construct: host or cells: MDCK cells
Description: Human Norepinephrine Transporter (NET) Functional Antagonist Uptake Assay was carried out at Panlabs Cerep (assay#302100). Human recombinant norepinephrine transporter expressed in MDCK cells were plated overnight. Test compound and/or vehicle was pre-incubated with cells (2×10E5/ml) in modified Tris-HEPES buffer pH 7.1 for 20 minutes at 25° C. and 25 nM [3H]Norepinephrine was then added for an additional 15 minute incubation period. A lysate was obtained from solubilized cells and counted to determine [3H]Norepinephrine uptake. Reduction of [3H]Norepinephrine uptake by 50 percent or more (≥50%) relative to 10 μM desipramine indicates significant inhibitory activity. Compounds are screened at 10, 3, 1, 0.3, 0.1, 0.03, 0.01 and 0.003 μM. These same concentrations are concurrently applied to a separate group of untreated cells and evaluated for possible compound-induced cytotoxicity only if significant inhibition of uptake is observed. IC50 values were determined by a non-linear, least squares regression analysis using MathIQTM (IDBusiness Solutions Ltd., UK).

[3] = FaSSIF pH 6.5, shaken 24 hours at 25° C., read-out: pH 6.5 (FaSSIF) solubility
[4] = phosphate buffered saline (PBS) pH 2, aqueous buffer, PBS pH 2, shaken 24 hours at 25° C., read-out: pH 2 solubility

T1 sequence (P03952 391-638 limits assumed): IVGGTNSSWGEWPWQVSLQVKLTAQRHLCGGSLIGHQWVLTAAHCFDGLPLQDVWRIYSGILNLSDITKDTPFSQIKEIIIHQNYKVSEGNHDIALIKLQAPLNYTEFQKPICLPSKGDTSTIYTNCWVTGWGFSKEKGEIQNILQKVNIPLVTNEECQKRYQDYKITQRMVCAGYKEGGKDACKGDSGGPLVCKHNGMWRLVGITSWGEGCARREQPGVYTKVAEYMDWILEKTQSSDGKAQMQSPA
T1 sequence (P03952 20-390 partner limits assumed): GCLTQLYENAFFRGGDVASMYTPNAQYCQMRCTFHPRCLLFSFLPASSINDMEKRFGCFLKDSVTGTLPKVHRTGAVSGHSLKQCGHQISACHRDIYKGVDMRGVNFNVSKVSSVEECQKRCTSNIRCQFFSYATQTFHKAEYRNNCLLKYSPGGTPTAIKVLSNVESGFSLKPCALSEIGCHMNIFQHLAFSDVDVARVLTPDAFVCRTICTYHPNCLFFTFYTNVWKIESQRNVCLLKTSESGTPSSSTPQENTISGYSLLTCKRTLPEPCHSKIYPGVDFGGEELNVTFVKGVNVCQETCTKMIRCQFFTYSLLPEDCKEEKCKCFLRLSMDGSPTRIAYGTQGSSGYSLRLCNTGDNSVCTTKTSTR
T2 sequence (P23975 whole entry): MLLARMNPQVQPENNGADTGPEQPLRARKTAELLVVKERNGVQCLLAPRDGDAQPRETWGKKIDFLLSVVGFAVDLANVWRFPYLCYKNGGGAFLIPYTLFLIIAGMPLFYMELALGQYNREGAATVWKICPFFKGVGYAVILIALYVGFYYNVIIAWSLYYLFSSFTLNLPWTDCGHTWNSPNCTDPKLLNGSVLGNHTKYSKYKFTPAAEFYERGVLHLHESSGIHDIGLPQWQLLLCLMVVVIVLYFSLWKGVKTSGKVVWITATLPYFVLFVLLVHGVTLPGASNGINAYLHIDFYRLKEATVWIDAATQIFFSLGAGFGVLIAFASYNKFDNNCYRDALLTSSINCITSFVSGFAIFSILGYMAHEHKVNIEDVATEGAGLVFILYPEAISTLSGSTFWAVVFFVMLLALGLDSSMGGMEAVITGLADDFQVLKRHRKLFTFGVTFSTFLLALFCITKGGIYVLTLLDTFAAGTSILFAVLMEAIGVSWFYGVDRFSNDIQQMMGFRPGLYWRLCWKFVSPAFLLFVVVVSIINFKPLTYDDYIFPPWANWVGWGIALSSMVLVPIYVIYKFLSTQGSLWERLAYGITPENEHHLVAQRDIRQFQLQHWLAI
Sequence of human Factor XIa (P03951 388-625 limits assumed): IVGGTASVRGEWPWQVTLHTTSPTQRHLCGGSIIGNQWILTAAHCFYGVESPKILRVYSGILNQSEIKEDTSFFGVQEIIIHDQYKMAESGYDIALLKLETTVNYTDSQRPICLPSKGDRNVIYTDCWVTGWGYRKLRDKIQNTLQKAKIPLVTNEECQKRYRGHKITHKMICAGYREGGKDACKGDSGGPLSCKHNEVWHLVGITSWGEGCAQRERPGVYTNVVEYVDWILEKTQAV
Sequence of human Factor XIa (P03951 19-387 partner limits assumed): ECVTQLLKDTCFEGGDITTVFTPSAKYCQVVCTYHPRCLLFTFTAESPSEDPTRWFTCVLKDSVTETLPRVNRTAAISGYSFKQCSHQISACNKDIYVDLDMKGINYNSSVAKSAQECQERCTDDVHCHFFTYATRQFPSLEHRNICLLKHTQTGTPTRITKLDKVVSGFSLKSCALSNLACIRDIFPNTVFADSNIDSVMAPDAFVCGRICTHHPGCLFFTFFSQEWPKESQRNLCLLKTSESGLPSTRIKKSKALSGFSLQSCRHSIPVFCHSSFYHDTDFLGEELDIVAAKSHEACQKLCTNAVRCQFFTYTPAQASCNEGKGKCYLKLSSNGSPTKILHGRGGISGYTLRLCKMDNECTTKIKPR

Structure (SMILES)	IC50 (human Factor XIa) [nM]	IC50 (Human plasma kallikrein) [nM]	solubility kinetic at 24 h [1, 3] [µM]	solubility kinetic at 24 h [1, 4] [µM]	IC50 [2] [µM]
CCOC(=O)c1[nH]c2nc1-c1ccc(NC(=O)OC)cc1NC(=O)C(C)(C)CCC[C@@H]2c1ccc(-c2cc(F)ccc2-n2cc(C(F)(F)F)cn2)c[n+]1[O-] [Example 1, (R,Z)-2-(1^5-(ethoxycarbonyl)-2^4-((methoxycarbonyl)amino)-5,5-dimethyl-4-oxo-1^1H-3-aza-1(4,2)-imidazola-2(1,2)-benzenacyclononaphane-9-yl)-5-(5-fluoro-2-(4-(trifluoromethyl)-1H-pyrazol-1-yl)phenyl)pyridine 1-oxide]	0.88	119	39 (≈ 29.2 µg/mL)	147 (≈ 110 µg/mL)	> 10
CCOC(=O)c1[nH]c2nc1-c1ccc(NC(=O)OC)cc1NC(=O)C(C)(C)CCC[C@@H]2c1ccc(-c2cc(Cl)ccc2-n2cc(C(F)(F)F)cn2)c[n+]1[O-] [Example 2, (R,Z)-5-(5-chloro-2-(4-(trifluoromethyl)-1H-pyrazol-1-yl)phenyl)-2-(1^5-(ethoxycarbonyl)-2^4-((methoxycarbonyl)amino)-5,5-dimethyl-4-oxo-1^1H-3-aza-1(4,2)-imidazola-2(1,2)-benzenacyclononaphane-9-yl)pyridine 1-oxide]	0.97	11	27 (≈ 20.7 µg/mL)	104 (≈ 79.7 µg/mL)	> 10
CCOC(=O)c1[nH]c2nc1-c1ccc(NC(=O)OC)cc1NC(=O)C(C)(C)CCC[C@@H]2c1ccc(-c2cc(Cl)cnc2OC(F)F)c[n+]1[O-] [Example 4, (R,Z)-5′-chloro-2′-(difluoromethoxy)-6-(1^5-(ethoxycarbonyl)-2^4-((methoxycarbonyl)amino)-5,5-dimethyl-4-oxo-1^1H-3-aza-1(4,2)-imidazola-2(1,2)-benzenacyclononaphane-9-yl)-[3,3′-bipyridine] 1-oxide]	1.3	104	33 (≈ 23.1 µg/mL)	137 (≈ 95.8 µg/mL)	> 10

Next, values leading:

IC50 (human Factor XIa) [nM]	IC50 (Human plasma kallikrein) [nM]	solubility kinetic at 24 h [1, 3] [µM]	solubility kinetic at 24 h [1, 4] [µM]	IC50 [2] [µM]	Structure (SMILES)
0.26	1.4	40 (≈ 27.3 µg/mL)	171 (≈ 117 µg/mL)	> 10	CCOC(=O)c1[nH]c2nc1-c1ccc(NC(=O)OC)cc1NC(=O)C(C)(C)CCC[C@@H]2c1ccc(-c2cc(F)ccc2OC(F)F)c[n+]1[O-] [Example 3, (R,Z)-5-(2-(difluoromethoxy)-5-fluorophenyl)-2-(1^5-(ethoxycarbonyl)-2^4-((methoxycarbonyl)amino)-5,5-dimethyl-4-oxo-1^1H-3-aza-1(4,2)-imidazola-2(1,2)-benzenacyclononaphane-9-yl)pyridine 1-oxide]
0.19	0.49	51 (≈ 33.2 µg/mL)	108 (≈ 70.2 µg/mL)	> 10	CCOC(=O)c1[nH]c2nc1-c1ccc(NC(=O)OC)cc1NC(=O)C(C)(C)CCC[C@@H]2c1ccc(-c2cccc(Cl)c2F)c[n+]1[O-] [Example 5, (R,Z)-5-(3-chloro-2-fluorophenyl)-2-(1^5-(ethoxycarbonyl)-2^4-((methoxycarbonyl)amino)-5,5-dimethyl-4-oxo-1^1H-3-aza-1(4,2)-imidazola-2(1,2)-benzenacyclononaphane-9-yl)pyridine 1-oxide]
0.81	122	64 (≈ 47.1 µg/mL)	163 (≈ 120 µg/mL)	> 10	COC(=O)Nc1ccc2c(c1)NC(=O)C(C)(C)CCC[C@H](c1ccc(-c3cc(F)ccc3-n3cc(C(F)(F)F)cn3)c[n+]1[O-])c1nc-2c(C(=O)OC)[nH]1 [Example 6, (R,Z)-5-(5-fluoro-2-(4-(trifluoromethyl)-1H-pyrazol-1-yl)phenyl)-2-(1^5-(methoxycarbonyl)-2^4-((methoxycarbonyl)amino)-5,5-dimethyl-4-oxo-1^1H-3-aza-1(4,2)-imidazola-2(1,2)-benzenacyclononaphane-9-yl)pyridine 1-oxide]
